Laboratory results reported in PubChem BioAssay (NCI).
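96-well plates; 48 h exposure; 5 concentrations. Endpoints by linear interpolation between flanking doses. Not reached: highest tested concentration assigned. GI50: concentration for 50% inhibition of growth. TGI marks complete inhibition of growth.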

Tests used:
Assay in all cases: inhibition of tumour cell growth, NCI panel, 48 h
[1] = tested on: RPMI-8226 leukemia
[2] = tested on: A549 NSCLC
[3] = tested on: OVCAR-3 ovarian
[4] = tested on: LOX IMVI melanoma
[5] = tested on: SK-MEL-5 melanoma
[6] = tested on: IGROV1 ovarian
[7] = tested on: SF-268 CNS
[8] = tested on: TK-10 renal
[9] = tested on: SK-MEL-2 melanoma
[10] = tested on: OVCAR-5 ovarian

Row | SMILES | GI50 [1] [µM] | TGI [1] [µM] | GI50 [2] [µM] | TGI [2] [µM] | GI50 [3] [µM] | TGI [3] [µM] | GI50 [4] [µM] | TGI [4] [µM] | GI50 [5] [µM] | TGI [5] [µM] | GI50 [6] [µM] | TGI [6] [µM] | GI50 [7] [µM] | TGI [7] [µM] | GI50 [8] [µM] | TGI [8] [µM] | GI50 [9] [µM] | TGI [9] [µM] | TGI [10] [µM] | GI50 [10] [µM]
1 | C1C[OH+]CC[OH+]CCNCC[OH+]CC[OH+]CCN1.N.[Cl-].[Pt+4] | 10.2 | 92.7 | 15.4 | > 100 | 4.12 | 19.4 | 7.66 | 28.4 | 10.3 | 25.3 | 4.55 | 34.7 | 1.99 | 14.5 | 8.31 | 71.3 | 19.9 | 53 |  | 
2 | O=C1/C(=C\c2c[nH]c3ccccc23)c2ccccc2N1c1c(Cl)cccc1Cl | 1.89 | 4.68 | 2.62 | 7.79 | 1.83 | 3.78 | 1.59 | 3.09 | 1.55 | 2.92 | 1.19 | 3.18 | 1.6 | 3.59 | 2.17 | 5 | 1.94 | 3.65 |  | 
3 | COc1ccc(C2=Nc3ccccc3NC(=O)C2)cc1 |  |  |  | > 100 |  | > 100 |  | 37.1 |  | > 100 |  | > 100 |  | 78.1 |  | 66.4 |  | > 100 | > 100 | 
4 | CCCCC(CC)CN=C(N)NC(N)=NCCCCCCN=C(N)NC(N)=NCC(CC)CCCC (configuration not stated) |  |  |  |  |  |  |  |  |  |  |  |  | 1.63 | 3.09 | 4.03 | > 100 |  |  |  | 
5 | Cc1cc(N(CCC#N)CCC#N)ccc1N=Nc1cccc(C(=O)O)c1 |  |  |  | > 100 |  | > 100 |  | > 100 |  | > 100 |  | > 100 |  | > 100 |  | > 100 |  | > 100 | > 100 | 
6 | COc1ccc(/C=C2\CCCC3=C2N=C2SC(C)=NN2C3c2ccc(OC)c(OC)c2)cc1OC (configuration not stated) |  |  | 31.8 | > 100 | 4.62 | 74.9 | 4.52 | 35.2 | 6.27 | > 100 | 18.4 | 93.8 | 18.2 | > 100 | 5.99 | 51.2 | 22.2 | 97.1 | > 100 | 36
7 | COc1ccc(-c2ccc(/C=N/n3c(COc4ccc(Cl)cc4Cl)nn(CN4CCOCC4)c3=S)o2)c([N+](=O)[O-])c1 | 12.7 | 40.1 | 24.1 | > 100 | 14.6 | 37.9 |  |  |  |  |  |  | 28.6 | > 100 | 14.1 | 49.2 |  |  | > 100 | 38.8
8 | CCc1ccccc1NC(=O)C(=O)CC(=O)c1sc(Nc2ccccc2)nc1C |  |  |  | > 100 |  | > 100 |  | > 100 |  | > 100 |  | > 100 |  | > 100 |  | > 100 |  | > 100 | > 100 | 
9 | Cc1ccc(N=Nc2c(O)c(C(=O)O)cc3ccccc23)cc1C |  | > 100 |  | > 100 |  | > 100 |  |  |  | > 100 |  | > 100 |  | > 100 |  | > 100 |  | > 100 | > 100 | 
10 | CC1=C(C)C(=O)c2c(cc3ccccn23)C1=O |  | 65.9 |  | 43.1 |  | 29.2 |  | 19.1 |  | 22.1 |  | 54.5 |  | 52.8 |  | 55.9 |  |  | 92.6 | 
11 | CC1=C(Oc2ccccc2)C(CCC(=O)O)c2c(O)cc(Cl)c(O)c21 (configuration not stated) |  | > 100 |  | > 100 |  | > 100 |  | > 100 |  | > 100 |  | > 100 |  | > 100 |  | > 100 |  | > 100 |  | 
12 | CC(CCC(=O)O)[C@H]1CCC2[C@@H]3CC[C@@H]4CC(O)CC[C@]4(C)C3CC[C@@]21C (some centres not stated) | 23.6 | 57.1 | 25.3 | > 100 |  |  | 29.5 | > 100 |  |  | 40.7 | > 100 | > 100 | > 100 | 42.2 | > 100 | 28.5 | 87.1 | > 100 | > 100
13 | Nc1ccn(CCNCCn2cnc3nc(N)[nH]c(=O)c32)c(=O)n1 |  | > 100 |  | > 100 |  | > 100 |  | > 100 |  |  |  | > 100 |  | > 100 |  | > 100 |  | > 100 | > 100 | 
14 | CC(=O)OCC1OC(OC2C(CSC3OC(COC(C)=O)C(OC(C)=O)C(OC(C)=O)C3OC(C)=O)OC(OC(C)=O)C(OC(C)=O)C2OC(C)=O)C(OC(C)=O)C(OC(C)=O)C1OC(C)=O (configuration not stated) |  | > 100 |  | > 100 |  | > 100 |  | > 100 |  | > 100 |  | > 100 |  | > 100 |  | > 100 |  |  | > 100 | 
15 | CC1(C)C(=NNC(=O)C[N+](C)(C)C)C(C)(C)C1=NNC(=O)C[N+](C)(C)C |  |  |  | > 100 |  | > 100 |  | > 100 |  | > 100 |  | > 100 |  | > 100 |  | > 100 |  | > 100 | > 100 | 
16 | Cn1cc(-c2ccc3occ(-c4cccc(-c5ccncc5)c4)c3n2)cn1 |  |  | 0.714 | > 100 | 0.479 | > 100 | 0.564 | > 100 | 0.406 | 1.63 | 0.592 | > 100 | 1.46 | > 100 | 2.1 | > 100 | 0.758 | > 100 | > 100 | 3.96
17 | COc1ccc(-c2n/c(=C\c3c(O)[nH]c4ccc(OC)cc34)cc3c2=Nc2ccccc2-3)cc1 | 3.21 | 37.3 | 3.43 | 66.2 |  |  | 19.9 | 75.4 | 1.53 | 2.91 | 12 | > 100 |  |  | 2.09 | 3.87 |  |  | > 100 | 44.5
18 | CCCCCCCCCCC(C(=O)O)C1(C(=O)O)CCC(=O)O1 (configuration not stated) |  | > 100 |  | > 100 |  | > 100 |  | > 100 |  |  |  | > 100 |  | > 100 |  | > 100 |  | > 100 | > 100 | 
19 | O=C(CN1CCOCC1)Nc1nc(-c2ccc(Cl)cc2)cs1 |  | 53.7 |  | > 100 |  | 76.9 |  | 58.7 |  |  |  | > 100 |  | > 100 |  | > 100 |  | 54.5 | > 100 | 
